Measurements: patent US20230348358A1, “Serotonin Receptor Modulators” (Northeastern University, priority 2020, published 2023)
“Also recorded” adds a separate entry of the source. Where two headings read alike, the source gives them in different places.

Columns and labels:
[1] = tested on: C57BL/6J mice; test: DOI-elicited head-twitch response (HTR); type: in vivo, mouse
Description: The 5-HT2A receptor is a predominant 5-HT receptor in the cortex, and serves important excitation modulation functions on glutamate pyramidal and GABA neurons.

[2] = molecular target: T1, 5HT2A receptors (Homo sapiens, UniProt P28223); test: 5-HT2A function in HEK cells over-expressing the receptor; type: cell-based
T1 construct: host or cells: HEK293, transient

[3] = molecular target: T2, 5HT2C receptors (Homo sapiens, UniProt P28335); test: 5HT2C functional assay; type: cell-based; conditions: read-out: EC50 at 5HT2C receptors (agonist)
T2 construct: host or cells: HEK293, transient
T2 sequence (P28335 33-458): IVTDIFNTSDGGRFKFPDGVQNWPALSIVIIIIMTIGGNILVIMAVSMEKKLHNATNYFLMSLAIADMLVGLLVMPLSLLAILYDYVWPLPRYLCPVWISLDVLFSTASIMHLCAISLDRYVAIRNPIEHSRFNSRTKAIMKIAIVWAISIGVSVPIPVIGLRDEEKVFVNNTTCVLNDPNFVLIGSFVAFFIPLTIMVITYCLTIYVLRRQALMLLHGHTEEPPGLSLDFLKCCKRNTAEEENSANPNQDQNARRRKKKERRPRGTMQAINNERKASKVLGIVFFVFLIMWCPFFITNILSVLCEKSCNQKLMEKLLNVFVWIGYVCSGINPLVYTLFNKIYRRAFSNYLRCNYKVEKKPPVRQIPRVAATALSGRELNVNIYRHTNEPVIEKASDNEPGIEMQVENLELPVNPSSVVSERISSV

[4] = tested on: FVB mice; test: Marble burying; conditions: mouse, in vivo
Description: For measurement of marble burying (FIG. 7), FVB mice were placed individually, for 10 min, in clean boxes (6 in. ×10 in. ×5 in.) containing 18 clear marbles atop fresh home-bedding. Marbles buried (i.e., marbles 50% covered with bedding) were calculated after the test session.

[5] = tested on: Fmr1 knockout and wild-type mice; test: c-Fos immunohistochemistry in brain of wild-type and Fmr1 knockout mice; type: in vivo, mouse; conditions: for c-Fos expression in the inferior colliculus: juvenile Fmr1 knockout mice, 30 seconds 120 dB alarm
Description: Brains are excised and post-fixed overnight in 4% paraformaldehyde, followed by 20% glycerol in TBS for at least 24 hrs. Coronal sections (40 μm) traversing regions of interest then be collected using a Leica CM1950 cryostat, and placed in cold TBS. c-Fos IHC is performed using free-floating IHC methods as have been previously described, but with a new primary antibody. A protocol with the Abcam [2H2] (ab208942) mouse monoclonal antibody has been recently optimized, which has essentially no cross-reactivity. An HRP-conjugated secondary antibody is used for visualization by the biotin-streptavidin technique using 3,3′-diaminobenzidine as the chromagen (Vectastain Elite, Vector Laboratories). Examination of c-Fos expression in frontal cortex, hypothalamus, nucleus accumbens, ventral tegmental area, amygdala, BNST, and hippocampus are conducted.
On the basis of the distribution of FMRP (Fragile X mental retardation protein) in the adult mouse brain and considering neural systems implicated in cognitive and neuropsychiatric symptoms (e.g., anxiety, sensory hypersensitivity, and social deficits) present in FXS and ASD, the effects of FPT were evaluated on c-Fos expression in the hippocampus (CA1, CA3, and dentate gyrus (DG)), the basolateral amygdala (ventral (BLAv), posterior (BLAp), and anterior (BLAa)), the somatosensory (SS) cortex, the hypothalamus (periventricular hypothalamic nucleus, intermediate (PVi), posterior hypothalamic nucleus (PH), and dorsomedial nucleus of the hypothalamus (DMH)), the paraventricular nucleus of the thalamus (PVT), and the ventral retrosplenial area (RSPv). Shown in FIG. 15A and FIG. 15B are results from analyses of c-Fos expression in CA3 and the BLAa, respectively. There were no main effects of the independent variables on c-Fos in CA3; however, there was a significant treatment effect in BLAa (F(1, 12)=14.22, P=0.0027). […] The effect was large, but the difference was not statistically significant (P=0.0871, d=1.54).

[6] = tested on: C57BI/6J mice; test: Social interactions between littermates; type: in vivo, mouse; conditions: 5.6 mg/kg
Description: After behavioral testing was complete, blind scorers categorized mice into two groups based on number of rears and initiated social interactions, and the two groups differentiated vehicle from (2S)-5-FPT-treated mice with 100% accuracy.

[7] = molecular target: T3, 5HT1A (Homo sapiens, UniProt P08908); test: 5HT1A function, Gαi cAMP signaling (CHO cells); type: cell-based
T3 sequence (P08908 1-422): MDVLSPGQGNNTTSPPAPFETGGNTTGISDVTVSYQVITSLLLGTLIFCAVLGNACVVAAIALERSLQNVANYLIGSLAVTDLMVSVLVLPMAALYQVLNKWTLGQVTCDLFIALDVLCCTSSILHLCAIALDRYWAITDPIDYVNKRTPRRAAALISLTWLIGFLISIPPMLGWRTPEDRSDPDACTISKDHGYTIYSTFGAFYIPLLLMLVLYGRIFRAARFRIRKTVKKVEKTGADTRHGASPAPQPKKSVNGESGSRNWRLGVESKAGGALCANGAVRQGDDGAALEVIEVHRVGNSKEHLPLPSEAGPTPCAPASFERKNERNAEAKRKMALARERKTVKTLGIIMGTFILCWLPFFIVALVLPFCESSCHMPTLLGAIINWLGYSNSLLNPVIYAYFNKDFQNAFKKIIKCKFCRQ

[8] = tested on: C57BI/6J mice; test: d-Amphetamine (AMP)-elicited hyperlocomotion; type: in vivo, mouse; conditions: 5.6 mg/kg; listed as (2S)-5-FPT, HCl
[9] = molecular target: T4, D2 receptors (Homo sapiens, UniProt P14416); test: Affinity at dopamine D2 receptors; type: binding
T4 construct: host or cells: HEK293, transient

[10] = tested on: 50 CNS/peripheral sites; test: NIMH PDSP / NIDA evaluation at 50 CNS/peripheral sites; type: binding
[11] = Plasma and brain concentrations by LC-MS/MS after systemic administration; type: in vivo, mouse; conditions: for concentration at 30 min / concentration at 60 min / concentration at 90 min: 3.0 mg/kg subcutaneous, mean (SEM); for concentration at 30 min: 30 min after injection; for concentration at 60 min: 60 min after injection; for concentration at 90 min: 90 min after injection
Description: (2S)-5-FPT is neurobehaviorally active after oral administration.

[12] = tested on: mice (C57BL/6J, FVB, C58/J); test: Locomotor behavior, compound on its own; type: in vivo, mouse; conditions: compound on its own or in the DOI assay; listed as (2S)-5-FPT, HCl
[13] = molecular target: T5, 5HT2B receptors (Homo sapiens, UniProt P41595); test: Affinity at 5HT2B receptors; type: binding
T5 construct: host or cells: HEK293, transient

[14] = mouse, brain, read-out: Brain concentration
[15] = mouse, plasma, read-out: Plasma concentration

T5 sequence (P41595 whole entry): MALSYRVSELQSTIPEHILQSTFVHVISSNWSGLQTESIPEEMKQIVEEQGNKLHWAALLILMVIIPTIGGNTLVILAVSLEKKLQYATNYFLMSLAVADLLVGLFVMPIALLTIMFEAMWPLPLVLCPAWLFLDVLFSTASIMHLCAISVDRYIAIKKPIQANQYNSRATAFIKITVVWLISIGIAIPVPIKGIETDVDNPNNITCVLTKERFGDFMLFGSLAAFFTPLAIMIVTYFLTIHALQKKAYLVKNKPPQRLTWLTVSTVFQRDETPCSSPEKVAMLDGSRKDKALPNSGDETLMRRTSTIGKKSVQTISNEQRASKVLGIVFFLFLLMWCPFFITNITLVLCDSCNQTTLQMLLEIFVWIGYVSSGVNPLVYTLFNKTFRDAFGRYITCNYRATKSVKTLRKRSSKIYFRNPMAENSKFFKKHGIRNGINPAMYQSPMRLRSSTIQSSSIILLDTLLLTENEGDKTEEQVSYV
T4 sequence (P14416 whole entry): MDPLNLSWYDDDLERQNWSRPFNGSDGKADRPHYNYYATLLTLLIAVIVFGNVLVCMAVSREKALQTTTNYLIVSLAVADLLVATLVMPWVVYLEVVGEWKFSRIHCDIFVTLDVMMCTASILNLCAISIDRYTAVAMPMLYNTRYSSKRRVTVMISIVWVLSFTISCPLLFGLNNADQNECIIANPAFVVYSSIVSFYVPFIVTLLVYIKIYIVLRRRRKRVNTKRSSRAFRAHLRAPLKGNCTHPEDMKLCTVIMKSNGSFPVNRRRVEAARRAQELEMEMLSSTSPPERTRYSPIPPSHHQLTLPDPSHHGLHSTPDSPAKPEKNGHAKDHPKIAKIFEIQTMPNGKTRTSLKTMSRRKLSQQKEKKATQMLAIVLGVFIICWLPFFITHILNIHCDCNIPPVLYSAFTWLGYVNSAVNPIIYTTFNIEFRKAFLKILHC
T1 sequence (P28223 whole entry): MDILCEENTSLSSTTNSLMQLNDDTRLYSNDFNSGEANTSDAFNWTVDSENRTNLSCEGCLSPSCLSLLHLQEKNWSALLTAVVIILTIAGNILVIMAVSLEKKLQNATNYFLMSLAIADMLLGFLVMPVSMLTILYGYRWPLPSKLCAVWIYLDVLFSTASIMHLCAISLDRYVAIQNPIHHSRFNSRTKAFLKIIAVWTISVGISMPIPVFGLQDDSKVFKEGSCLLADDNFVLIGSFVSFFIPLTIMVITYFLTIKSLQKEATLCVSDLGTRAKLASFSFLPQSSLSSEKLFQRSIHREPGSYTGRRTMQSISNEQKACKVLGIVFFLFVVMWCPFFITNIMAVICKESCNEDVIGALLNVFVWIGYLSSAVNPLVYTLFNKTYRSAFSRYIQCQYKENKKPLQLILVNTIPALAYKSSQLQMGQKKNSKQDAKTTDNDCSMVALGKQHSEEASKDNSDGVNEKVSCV

Structure (SMILES): CN(C)[C@H]1CCc2c(cccc2-c2ccccc2F)C1.Cl [(S)-5-FPT, (2S)-5-(2-fluorophenyl)-N,N-dimethyl-1,2,3,4-tetrahydronaphthalen-2-amine HCl]
- DOI HTR at 3 hours post-administration ([1]; 5.6 mg/kg, 3 hours post-administration): did not block the DOI HTR
- Time for which attenuation of the DOI HTR remained significant ([1]; 5.6 mg/kg, post-administration): up to 2 hours
- DOI-elicited HTR ([1]; mouse, in vivo, listed as (2S)-5-FPT, HCl): dose-dependently attenuated the DOI-elicited HTR; also recorded: significantly attenuated
- Oral activity ([1]; oral administration): orally active
- Function at 5-HT2A receptors [2]: weak partial agonist activity
- EC50 [3]: 0.23 µM
- Marble burying (repetitive behavior) [4]: reduces or eliminates repetitive behavior in all models
- c-Fos expression in CA3 region of the hippocampus ([5]; WT and KO mice): did not significantly increase c-Fos expression
- c-Fos expression in the inferior colliculus [5]: did not affect the number of c-Fos positive cells
- c-Fos expression in the inferior colliculus ([5]; listed as FPT, HCl): no effect
- c-Fos expression in other brain regions ([5]; mouse, in vivo): did not significantly alter c-Fos expression in any other brain region examined
- Grooming [6]: decreasing grooming
- Number of initiated social interactions ([6]; listed as (2S)-5-FPT, HCl): significantly increases the number of initiated social interactions
- Function at 5HT1A [7]: Partial agonist
- Hyperlocomotion caused by AMP [8]: did not reduce hyperlocomotion caused by AMP; also recorded: did not significantly decrease hyperlocomotion elicited by amphetamine
- Affinity at D2 receptors [9]: poor affinity
- Activity at 50 CNS/peripheral sites [10]: without activity at 50 CNS/peripheral sites
- concentration at 30 min [11, 14]: 1780 ng/g
- concentration at 60 min [11, 14]: 2160 ng/g
- concentration at 90 min [11, 14]: 1460 ng/g
- Blood-brain barrier penetration ([11]; mouse, in vivo): readily crosses the blood-brain barrier
- concentration at 30 min [11, 15]: 114 ng/mL
- concentration at 60 min [11, 15]: 118 ng/mL
- concentration at 90 min [11, 15]: 70 ng/mL
- Peripheral clearance ([11]; plasma levels lower than brain): rapidly cleared in the periphery
- Locomotor behavior [12]: did not alter locomotion; also recorded: without altering locomotor behavior on its own
- Ki [13]: 0.06 µM
